Assay results: ChEMBL document CHEMBL2331387, “Chemical probes of a trisubstituted pyrrole to identify its protein target(s) in Plasmodium sporozoites” (2013)
Activity calls are given as the source filed them. No cut-off for these calls is given here.

Tests used:
Plasmodium berghei [1] = assay: Antimalarial activity against sporozoite stage of Plasmodium berghei infected in human HepG2 cells assessed as inhibition of sporozoite infectivity at 10 uM after 40 hrs; type: functional, organism-based
Plasmodium berghei [2] = assay: Antimalarial activity against sporozoite stage of Plasmodium berghei infected in human HepG2 cells assessed as inhibition of sporozoite infectivity at 2 uM after 40 hrs; type: functional

SMILES	inhibition (Plasmodium berghei [1])	inhibition (Plasmodium berghei [2])	inhibition at 2 µM (Plasmodium berghei [2]; HepG2, 40 h)
Fc1ccc(-c2[nH]c(C3CCNCC3)cc2-c2ccncc2)cc1	Active		
O=C(CCCCCNC(=O)CCCC[C@@H]1SC[C@@H]2NC(=O)N[C@@H]21)NCCCCCC(=O)NCCN1CCC(c2cc(-c3ccncc3)c(-c3ccc(F)cc3)[nH]2)CC1	inactive	inactive	
O=C(CCCC[C@@H]1SC[C@@H]2NC(=O)N[C@@H]21)NCCOCCOCCOCCOCCC(=O)NCCN1CCC(c2cc(-c3ccncc3)c(-c3ccc(F)cc3)[nH]2)CC1	inactive	inactive	
NCCN1CCC(c2cc(-c3ccncc3)c(-c3ccc(F)cc3)[nH]2)CC1	Active		
CN1CCC(c2cc(-c3ccncc3)c(-c3ccc(F)cc3)[nH]2)CC1			> 90%
